The results in this text go back to ChEMBL document CHEMBL1201862, “PubChem BioAssay data set” (2004).

Molecules are shown by their SMILES.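 48-hour exposure; five concentrations; linearly interpolated endpoints. GI50: concentration for 50% inhibition of growth.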 Calls of active or inactive are those of the source. Rule as the data show it: active = GI50 up to about 1.1 µM and inactive = higher. Where only a bound is given, the exact number is not on record here.

Among the test systems are A549; ACHN; HCT-116; HCT-15; HL-60; HOP-92; HT-29; NCI-H460; SF-268; SK-MEL-28; SK-MEL-2; SN12C; SNB-19; SNB-75; SW-620; A498; K562; KM12; SK-MEL-5.
Assay in all cases: NCI tumour cell line growth inhibition, 48 h

For the compound `Cc1nc2ccc(C(F)(F)F)cc2nc1Nc1ccc(Cl)c(Cl)c1`, the GI50 in the assay on A549 is 7.14 µM (inactive); with ACHN, 11.3 µM (inactive); in the assay with HCT-116, 10.5 µM (inactive); in the assay on HCT-15 it was 6.12 µM; with HL-60, 5.62 µM (inactive); with HOP-92, 3.27 µM (inactive). In addition, the GI50 in the assay with HT-29 was 4.68 µM (inactive); in the assay on NCI-H460, 2.65 µM (inactive); in the assay with SF-268, 13.8 µM (inactive); in the assay with SK-MEL-28, 12.2 µM (inactive); in the assay with SK-MEL-2 it was 14.3 µM (inactive); in the assay on SN12C, 11.9 µM (inactive). Moreover, the GI50 was 14.1 µM (inactive) in the assay with SNB-19, > 10 µM (inactive) with SNB-75 and 12.7 µM (inactive) with SW-620.
`Cc1cc(N(CCC#N)CCC#N)ccc1/N=N/c1cc(Cl)ccc1Cl`: the GI50 is 20.1 µM (inactive) in the assay with A498; 19.2 µM (inactive) with A549; 12.8 µM (inactive) in the assay with ACHN; 2.05 µM in the assay on HCT-15; 3.39 µM (inactive) in the assay on HL-60; 2.64 µM (inactive) in the assay with HT-29. Besides, the GI50 was 2.78 µM (inactive) in the assay on K562; 15.2 µM (inactive) in the assay with KM12; 15.6 µM (inactive) in the assay with SF-268; 7.87 µM (inactive) in the assay on SK-MEL-28; 17.3 µM (inactive) in the assay on SK-MEL-2; 16.4 µM (inactive) with SK-MEL-5. The GI50 was 13.4 µM (inactive) in the assay with SN12C, 17.5 µM (inactive) with SNB-19, 13 µM (inactive) in the assay on SNB-75 and 2.36 µM (inactive) in the assay with SW-620.
Consider `CC1NC(=O)C2=C1C(N)=NC(=O)C2` (configuration not stated), for which the GI50 in the assay with A549 was > 100 µM (inactive); in the assay with ACHN, > 100 µM (inactive); in the assay with HCT-116, > 100 µM (inactive); with HCT-15, above 100 µM; in the assay on HOP-92 it was > 100 µM (inactive); in the assay with K562, > 100 µM (inactive). In addition, the GI50 in the assay on KM12, in the assay on NCI-H460, in the assay with SF-268, in the assay with SK-MEL-28, in the assay with SK-MEL-2 and in the assay with SK-MEL-5 was > 100 µM (inactive) in each case. Also, the GI50 in the assay with SN12C, with SNB-19, with SNB-75 and with SW-620 was > 100 µM (inactive) each time.
`Cc1ccc2oc(=O)c(-c3ccccc3)nc2c1`: the GI50 was 26 µM (inactive) in the assay on A549; 27.9 µM (inactive) in the assay with ACHN; 20.6 µM (inactive) with HCT-116; 25.1 µM in the assay with HCT-15; > 10 µM (inactive) with HL-60; 45.6 µM (inactive) in the assay with HT-29. Further, the GI50 with K562 was 24.3 µM (inactive); in the assay on KM12, 19.6 µM (inactive); with NCI-H460, 36.3 µM (inactive); with SF-268, 25.2 µM (inactive); in the assay with SK-MEL-28, 50.4 µM (inactive); with SK-MEL-2, 21 µM (inactive). In addition, the GI50 was 30.8 µM (inactive) with SK-MEL-5; 31.8 µM (inactive) in the assay with SN12C; 38.9 µM (inactive) in the assay on SNB-19; 37.5 µM (inactive) in the assay on SNB-75; 22 µM (inactive) in the assay on SW-620.
As for `Cc1cc(O)nc(NNC(C#N)c2ccc(O)cc2)n1` (configuration not stated), the GI50 is > 100 µM (inactive) with A549; > 100 µM (inactive) in the assay with ACHN; > 100 µM (inactive) in the assay on HCT-116; above 100 µM in the assay on HCT-15; > 100 µM (inactive) with HL-60; > 100 µM (inactive) in the assay on HOP-92. Moreover, the GI50 with HT-29, in the assay with K562, in the assay on KM12, with NCI-H460, in the assay on SF-268 and in the assay with SK-MEL-28 was > 100 µM (inactive) throughout. Also, the GI50 with SK-MEL-2, with SK-MEL-5, in the assay on SN12C, in the assay on SNB-75 and in the assay with SW-620 was > 100 µM (inactive) each time.
Turning to `CC(=O)n1nnc2ccc([N+](=O)[O-])cc21`, the GI50 with A549, in the assay with ACHN, in the assay on HCT-116, in the assay with HL-60, in the assay on HOP-92 and in the assay on HT-29 was > 100 µM (inactive) in each case. For the same compound, the GI50 in the assay with K562, in the assay with KM12, in the assay on NCI-H460, with SF-268, with SK-MEL-28 and in the assay on SK-MEL-2 was > 100 µM (inactive) each time. For the same compound, the GI50 with SK-MEL-5, in the assay on SN12C, with SNB-19, in the assay with SNB-75 and with SW-620 was > 100 µM (inactive) in each case.
With `C#C[C@H](CCCC)OC(=O)N[C@H](C)c1ccccc1`, the GI50 in the assay with A549 is 36.1 µM (inactive); in the assay with ACHN, 41.9 µM (inactive); in the assay with HCT-116, 24 µM (inactive); in the assay with HL-60 it was 17.5 µM (inactive); in the assay with HOP-92 it was 57.5 µM (inactive); with HT-29 it was 40.2 µM (inactive). Moreover, the GI50 in the assay with K562 is 34.6 µM (inactive); with KM12, 51.3 µM (inactive); in the assay with NCI-H460 it was 58.2 µM (inactive); in the assay on SF-268, 63.7 µM (inactive); with SK-MEL-28, 54.5 µM (inactive); in the assay with SK-MEL-2, 36.1 µM (inactive). Further, the GI50 with SK-MEL-5 was 21.7 µM (inactive); in the assay on SN12C, > 100 µM (inactive); with SNB-19, > 100 µM (inactive); in the assay on SNB-75, 41.2 µM (inactive); with SW-620, 68.2 µM (inactive).
Consider `NC(=O)c1ccccc1NC(=O)C(=O)Nc1n[nH]c(N)n1`, for which the GI50 with A498 is > 100 µM (inactive); with A549 it was > 100 µM (inactive); with ACHN, > 100 µM (inactive); with HCT-116 it was > 100 µM (inactive); in the assay on HCT-15, above 100 µM; in the assay on HL-60 it was > 100 µM (inactive). The GI50 in the assay on HT-29, with K562, in the assay with KM12, in the assay with NCI-H460, in the assay on SK-MEL-2 and in the assay with SK-MEL-5 was > 100 µM (inactive) in each case. Also, the GI50 with SN12C, in the assay with SNB-19, with SNB-75 and with SW-620 was > 100 µM (inactive) throughout.
Consider `C[C@]12CCC(=O)C=C1CC[C@@H]1C2CC[C@]2(C)NC(=O)C(C#N)CC12` (some centres not stated), for which the GI50 in the assay with A498 was > 100 µM (inactive); in the assay with A549, > 100 µM (inactive); in the assay with ACHN it was > 100 µM (inactive); with HCT-116 it was > 100 µM (inactive); in the assay with HCT-15, above 100 µM; with HL-60, > 100 µM (inactive). For the same compound, the GI50 with HT-29 is 30.8 µM (inactive); with K562, > 100 µM (inactive); with KM12, > 10 µM (inactive); with NCI-H460 it was > 100 µM (inactive); with SK-MEL-28 it was > 100 µM (inactive); in the assay on SK-MEL-2 it was > 100 µM (inactive). For the same compound, the GI50 in the assay on SK-MEL-5, in the assay on SNB-75 and with SW-620 was > 100 µM (inactive) each time.
For the compound `CN[C@@H](C)[C@@H](NC)c1ccccc1`, the GI50 in the assay with A498 was > 100 µM (inactive); with A549 it was > 100 µM (inactive); with ACHN, > 100 µM (inactive); with HCT-116, > 100 µM (inactive); with HCT-15, above 100 µM; in the assay with HOP-92, > 100 µM (inactive). In addition, the GI50 in the assay on HT-29, in the assay with K562, in the assay on KM12, in the assay on NCI-H460, with SK-MEL-28 and in the assay with SK-MEL-5 was > 100 µM (inactive) each time. In addition, the GI50 in the assay on SN12C, in the assay with SNB-75 and with SW-620 was > 100 µM (inactive) each time.
With `CC(=O)Nc1cccc2[nH]c3ccccc3c(=O)c12`, the GI50 in the assay on A498 is 14.9 µM (inactive); with A549 it was 21.6 µM (inactive); in the assay on ACHN it was 17.4 µM (inactive); in the assay on HCT-116 it was 11.5 µM (inactive); in the assay on HCT-15 it was 14.2 µM; with HL-60 it was 12.6 µM (inactive). In addition, the GI50 is 17 µM (inactive) with HT-29; 21.8 µM (inactive) in the assay on K562; 17.7 µM (inactive) with KM12; 17 µM (inactive) in the assay on NCI-H460; 26.7 µM (inactive) in the assay with SF-268; 31.5 µM (inactive) in the assay on SK-MEL-28. Moreover, the GI50 with SK-MEL-2 is 18.6 µM (inactive); in the assay on SK-MEL-5, 15.3 µM (inactive); in the assay on SN12C, 22.4 µM (inactive); in the assay with SNB-19, 23.2 µM (inactive); with SNB-75 it was 8.67 µM (inactive); in the assay on SW-620, 21.4 µM (inactive).
On to `O=S(=O)(N/C(=N\O)Nc1ccc(Cl)cc1)c1cc2ccccc2s1`, for which the GI50 with A549 was 18.7 µM (inactive); in the assay on ACHN, 16.4 µM (inactive); in the assay on HCT-116 it was 16.6 µM (inactive); in the assay on HCT-15, 18 µM; in the assay on HL-60, 11.7 µM (inactive); in the assay with HOP-92, 18.3 µM (inactive). Further, the GI50 in the assay on HT-29 is 19.6 µM (inactive); in the assay with K562, 27.9 µM (inactive); with KM12, 22.3 µM (inactive); in the assay on NCI-H460, 31.8 µM (inactive); in the assay with SF-268, 15.2 µM (inactive); in the assay with SK-MEL-28 it was 19.4 µM (inactive). Besides, the GI50 in the assay with SK-MEL-2 was 15.8 µM (inactive); in the assay with SK-MEL-5, 16.3 µM (inactive); in the assay on SN12C it was 18.6 µM (inactive); with SNB-19 it was 17 µM (inactive); in the assay with SNB-75 it was 12.7 µM (inactive); in the assay on SW-620, 23.7 µM (inactive).
